Reference: the NIST ThermoML archive (doi:10.1021/acs.jced.7b00503)
± gives the expanded uncertainty stated by the source.

Test: wn = mass fraction of the nth substance listed
Settings: Pendant drop shape

O [water] + [I-].[Na+]
w2 = 0
Settings | surface tension liquid-gas [mN/m]
293.15 K | 72.75 ± 0.84
298.15 K | 71.97 ± 0.84
303.15 K | 71.15 ± 0.83
313.15 K | 69.55 ± 0.83
323.15 K | 67.9 ± 0.82
333.15 K | 66.17 ± 0.81

O [water] + [Br-].[Na+]
w2 = 0
Settings | surface tension liquid-gas [mN/m]
293.15 K | 72.75 ± 0.84
303.15 K | 71.15 ± 0.83
313.15 K | 69.55 ± 0.83
323.15 K | 67.9 ± 0.82
333.15 K | 66.17 ± 0.81
343.15 K | 64.39 ± 0.8
353.15 K | 62.61 ± 0.79

[Cl-].[K+] [potassium chloride] + O
surface tension liquid-gas [mN/m]
Settings | w1 = 0.025 | w1 = 0.05 | w1 = 0.075 | w1 = 0.1 | w1 = 0.125 | w1 = 0.15 | w1 = 0.175 | w1 = 0.2
293.15 K | 73.32 ± 0.84 | 73.89 ± 0.85 | 74.52 ± 0.85 | 75.13 ± 0.85 | 75.61 ± 0.86 | 76.15 ± 0.86 | 77.1 ± 0.87 | 77.99 ± 0.87
303.15 K | 71.83 ± 0.84 | 72.44 ± 0.84 | 73.09 ± 0.84 | 73.68 ± 0.85 | 74.44 ± 0.85 | 75.18 ± 0.86 | 75.74 ± 0.86 | 76.32 ± 0.86
313.15 K | 70.27 ± 0.83 | 71.05 ± 0.83 | 71.66 ± 0.84 | 72.24 ± 0.84 | 72.88 ± 0.84 | 73.56 ± 0.85 | 74.18 ± 0.85 | 74.82 ± 0.85
323.15 K | 68.58 ± 0.82 | 69.17 ± 0.82 | 69.84 ± 0.83 | 70.49 ± 0.83 | 71.12 ± 0.84 | 71.74 ± 0.84 | 72.36 ± 0.84 | 73 ± 0.85
333.15 K | 66.95 ± 0.81 | 67.7 ± 0.82 | 68.21 ± 0.82 | 68.76 ± 0.82 | 69.37 ± 0.83 | 69.83 ± 0.83 | 70.47 ± 0.83 | 71.1 ± 0.84
343.15 K | 65 ± 0.8 | 65.55 ± 0.81 | 66.46 ± 0.81 | 67.35 ± 0.82 | 67.94 ± 0.82 | 68.47 ± 0.82 | 69.17 ± 0.83 | 69.81 ± 0.83
353.15 K | 63.25 ± 0.8 | 63.91 ± 0.8 | 64.64 ± 0.8 | 65.37 ± 0.81 | 66.05 ± 0.81 | 66.73 ± 0.81 | 67.35 ± 0.82 | 68.12 ± 0.82

[I-].[K+] [potassium iodide] + O
surface tension liquid-gas [mN/m]
Settings | 293.15 K | 298.15 K | 303.15 K | 313.15 K | 323.15 K | 333.15 K
w1 = 0.01 | 73.24 ± 0.84 | 72.53 ± 0.84 | 71.81 ± 0.84 | 70.45 ± 0.83 | 68.95 ± 0.82 | 67.52 ± 0.82
w1 = 0.02 | 73.65 ± 0.85 | 73 ± 0.84 | 72.35 ± 0.84 | 71.05 ± 0.83 | 69.69 ± 0.83 | 68.36 ± 0.82
w1 = 0.03 | 74.15 ± 0.85 | 73.57 ± 0.85 | 72.85 ± 0.84 | 71.62 ± 0.84 | 70.32 ± 0.83 | 68.95 ± 0.82
w1 = 0.04 | 75.05 ± 0.85 | 74.45 ± 0.85 | 73.7 ± 0.85 | 72.4 ± 0.84 | 71.2 ± 0.83 | 69.75 ± 0.83
w1 = 0.05 | 75.44 ± 0.86 | 74.79 ± 0.85 | 74 ± 0.85 | 72.7 ± 0.84 | 71.47 ± 0.84 | 69.98 ± 0.83
w1 = 0.06 | 76.12 ± 0.86 | 75.4 ± 0.9 | 74.75 ± 0.85 | 73.39 ± 0.85 | 72.15 ± 0.84 | 70.53 ± 0.83
w1 = 0.07 | 76.76 ± 0.86 | 76.04 ± 0.86 | 75.39 ± 0.86 | 74.09 ± 0.85 | 72.6 ± 0.84 | 70.97 ± 0.83
w1 = 0.08 | 77.23 ± 0.87 | 77.03 ± 0.86 | 76.15 ± 0.86 | 74.96 ± 0.85 | 73.86 ± 0.85 | 72.7 ± 0.84
w1 = 0.09 | 78.32 ± 0.87 | 77.68 ± 0.87 | 77.09 ± 0.86 | 75.86 ± 0.86 | 74.62 ± 0.85 | 73.19 ± 0.84
w1 = 0.1 | 79.11 ± 0.88 | 78.6 ± 0.9 | 78 ± 0.87 | 76.83 ± 0.86 | 75.66 ± 0.86 | 74.36 ± 0.85
w1 = 0.11 | 80.21 ± 0.88 | 79.5 ± 0.9 | 78.84 ± 0.87 | 77.67 ± 0.87 | 76.43 ± 0.86 | 75.26 ± 0.86
w1 = 0.12 | 81.04 ± 0.89 | 80.2 ± 0.9 | 79.51 ± 0.88 | 78.4 ± 0.87 | 77.16 ± 0.87 | 75.86 ± 0.86
